Data taken from US11590148B2, “Use of calcifediol in bariatric surgery patients” (OPKO IRELAND GLOBAL HOLDINGS, LTD., priority 2018, dated 2023).

How the values were obtained:
Assay type in all cases: in vivo, human
[1] = tested on: patients with intractable VDI having undergone bariatric surgery; experiment: Long-term efficacy study in bariatric surgery patients (52-week, ERC)
Method: The effectiveness of oral extended-release 25-hydroxyvitamin D3 (ERC) in raising serum total 25-hydroxyvitamin D to ≥30 ng/mL and reducing plasma iPTH by at least 30% from pre-treatement baseline is examined in a 52-week study of male and female patients aged at least 18 years, with intractable VDI, and having undergone bariatric surgery. In a randomized, double-blind controlled study, patients receive ERC or matching placebo.
Subjects are without any disease state or physical condition that might impair evaluation of safety or which would interfere with study participation, including having serum albumin ≤3.0 g/dL; and serum transaminase (alanine aminotransferase [ALT], glutamic-pyruvic transaminase [SGPT], aspartate aminotransferase [AST] or glutamic-oxaloacetic transaminase [SGOT])>2.5 times the upper limit of normal at screening.
When otherwise confirmed eligible at Visit 1, if taking more than 1,500 mg per day of elemental calcium (from diet and supplements), subjects reduce calcium use (to ≤1,500 mg per day) for the duration of the study.
When otherwise confirmed eligible at Visit 1, if taking bone metabolism therapies that may interfere with study endpoints, subjects discontinue use of these agents for the duration of the study. […]
Blood samples are collected at weekly, biweekly or monthly intervals during the pre-treatment period, the 52-week treatment period, the 6-week post-treatment FU period, and at early termination (ET), if applicable. Key parameters analyzed in the collected samples include: plasma iPTH, serum calcium (corrected for serum albumin), serum phosphorus, serum total 25-hydroxyvitamin D, serum calcifediol, serum 1,25-dihydroxyvitamin D3, and serum 24,25-dihydroxyvitamin D3 (24,25D3). Vital signs (VS), and AEs are monitored at each study visit. Other parameters monitored less frequently include brief physical examinations (PEs) and clinical laboratory tests (hematology and clinical chemistries). […] Additional parameters, including serum FGF23 and serum bone turnover markers are monitored at specified intervals. […]

[2] = tested on: patients having undergone bariatric surgery (bypass of at least the duodenum); experiment: Long-term efficacy study in Roux-en-Y surgery patients (one year, randomized, double-blind, vs cholecalciferol)
Method: The effectiveness of oral sustained-release 25-hydroxyvitamin D3 in restoring serum total 25-hydroxyvitamin D to optimal levels (>30 ng/mL) and increasing bone mineral density, is examined in a one year study of adult male and female patients having undergone bariatric surgery for weight reduction, wherein the surgery included bypass of at least the duodenum. In a randomized, double-blind controlled study, patients are treated with sustained-release 25-hydroxyvitamin D3 or cholecalciferol.
A total of 200 subjects participate in this study. All subjects participating in this study are aged 18 years or older, have bone mineral density T-scores between −2.0 and −4.0 as assessed by dual energy x-ray absorptiometry (DEXA), and have serum total 25-hydroxyvitamin D levels less than 30 ng/mL at the time of enrollment. All subjects receive a multivitamin therapy including calcium (up to 1,000 mg daily) and either cholecalciferol (3000 IU daily) or multiple sustained-release 25-hydroxyvitamin D3 (softgel capsules containing 30 μg 25-hydroxyvitamin D3), and abstain from receiving other Vitamin D therapy and significant sun exposure at study start and continuing through study termination.
After 3 months, the daily 25-hydroxyvitamin D3 softgel capsule dosage is maintained unchanged in patients whose serum total 25-hydroxyvitamin D is between 50 and 90 ng/mL, and increased by one capsule in patients whose serum total 25-hydroxyvitamin D is below 50 ng/mL.
Serum total 25-hydroxyvitamin D, plasma iPTH, serum calcium, serum phosphorus, urinary calcium, urinary phosphorus, and urinary creatinine are measured from the day of surgery, and at monthly intervals. Bone mineral density at four sites (total hip, femoral neck, ⅓radius, and lumbar spine) is determined at quarterly intervals by DEXA.

[3] = tested on: patients who are candidates for Roux-en-Y Surgery; experiment: Efficacy study in Roux-en-Y surgery patients (6-month)
Method: The effectiveness of oral sustained-release 25-hydroxyvitamin D3 in restoring serum total 25-hydroxyvitamin D to optimal levels (>30 ng/mL) and reducing parathyroid hormone level, is examined in a 6-month study of adult male and female patients who are candidates for Roux-en-Y Surgery for weight reduction. In a controlled study, patients are treated with sustained-release 25-hydroxyvitamin D3 (softgel capsules containing 25-hydroxyvitamin D3).
A total of 60 subjects participate in this study, all of whom have serum total 25-hydroxyvitamin D levels less than 30 ng/mL at the time of enrollment and serum intact parathyroid hormone levels greater than 70 pg/mL as evidence of SHPT. All subjects receive a multivitamin therapy including calcium (up to 1,000 mg daily) and cholecalciferol (3000 IU daily) following surgery, and abstain from receiving other Vitamin D therapy and significant sun exposure. Serum total 25-hydroxyvitamin D, serum intact parathyroid hormone, serum calcium, serum phosphorus, urinary calcium, urinary phosphorus, and urinary creatinine are measured from the day of surgery, and at monthly intervals following surgery.
After 2 months, the daily calcium dosage is maintained unchanged, and the cholecalciferol supplement is discontinued, while daily administration of sustained-release 25-hydroxyvitamin D3 (softgel capsules containing 30 μg 25-hydroxyvitamin D3) is initiated and continued for four months.

[4] = after 12 months of treatment, DEXA
[5] = once stable dosing has been achieved
[6] = months 0-2, cholecalciferol 3000 IU daily
[7] = time zero and months 1 and 2, cholecalciferol 3000 IU daily following surgery

## C=C1CC[C@H](O)C/C1=C/C=C1\CCC[C@]2(C)[C@@H]([C@H](C)CCCC(C)C)CC[C@@H]12 [cholecalciferol]
[1]; [4]
  change in bone mineral density: insignificant changes or reductions
[1]; [5]
  incidence of hypocalcemia: occur more frequently
  severity / occurrence of secondary hyperparathyroidism: occur more frequently
[2]; [4]
  change in bone mineral density: insignificant changes or reductions
[2]; [5]
  incidence of hypocalcemia: occur more frequently
  severity / occurrence of secondary hyperparathyroidism: occur more frequently
[3]; [6]
  change in mean serum total 25-hydroxyvitamin D level following surgery: only a moderate increase
  change in serum intact parathyroid hormone level following surgery: no significant difference
[3]; [7]
  group mean serum intact parathyroid hormone level: greater than 70 pg/mL
  group mean serum total 25-hydroxyvitamin D level: less than 30 ng/mL
